The text below walks through data of ChEMBL document CHEMBL1153651, “Synthesis and biology of the rigidified glutamate analogue, trans-2-carboxyazetidine-3-acetic acid (t-CAA)” (Bioorg Med Chem Lett, 1996).

Assay [1] concerns the target T1, Metabotropic glutamate receptor 5 (Homo sapiens, UniProt P41594). As to the kind of experiment: Compound was tested for its agonist activity against mGluR 5a receptor in CHO cells. Format: functional, cell-based. Particulars: Cricetulus griseus.
Assay [2] addresses T2, Metabotropic glutamate receptor 2 (Homo sapiens, UniProt Q14416). The experiment in a line: Compound was tested for its agonist activity against mGluR 2 receptor in CHO cells. Format: functional, cell-based. Particulars: Cricetulus griseus.
Target sequence in this assay (Q14416 19-872 limits assumed): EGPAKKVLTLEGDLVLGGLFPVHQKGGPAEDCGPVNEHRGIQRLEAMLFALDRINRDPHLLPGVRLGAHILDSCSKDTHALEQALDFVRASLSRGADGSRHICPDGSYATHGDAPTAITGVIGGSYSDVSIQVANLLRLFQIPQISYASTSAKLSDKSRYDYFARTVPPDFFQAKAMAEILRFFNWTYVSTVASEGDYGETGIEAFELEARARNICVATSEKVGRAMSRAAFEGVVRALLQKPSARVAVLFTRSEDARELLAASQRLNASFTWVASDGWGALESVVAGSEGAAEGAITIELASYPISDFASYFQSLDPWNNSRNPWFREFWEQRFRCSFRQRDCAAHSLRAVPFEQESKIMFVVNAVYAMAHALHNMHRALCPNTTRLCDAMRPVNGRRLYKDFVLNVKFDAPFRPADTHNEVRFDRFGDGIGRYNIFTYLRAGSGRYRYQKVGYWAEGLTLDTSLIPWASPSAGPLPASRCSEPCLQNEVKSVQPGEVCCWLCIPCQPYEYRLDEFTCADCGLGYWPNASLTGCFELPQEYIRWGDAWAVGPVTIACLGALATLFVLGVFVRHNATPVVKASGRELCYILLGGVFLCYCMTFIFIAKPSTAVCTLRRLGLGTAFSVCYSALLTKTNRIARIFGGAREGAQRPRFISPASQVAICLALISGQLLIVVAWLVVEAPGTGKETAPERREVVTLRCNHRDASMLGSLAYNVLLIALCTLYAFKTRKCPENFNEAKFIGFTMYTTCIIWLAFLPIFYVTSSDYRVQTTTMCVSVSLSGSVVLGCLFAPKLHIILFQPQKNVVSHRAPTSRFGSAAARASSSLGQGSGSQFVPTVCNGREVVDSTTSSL
For assay [3], the target named is T1, Metabotropic glutamate receptor 5. The experiment in a line: Compound was tested for its agonist activity against mGluR 5a receptor in CHO cells. Type of assay: functional, cell-based, Cricetulus griseus.
Target sequence in this assay (P41594 whole entry): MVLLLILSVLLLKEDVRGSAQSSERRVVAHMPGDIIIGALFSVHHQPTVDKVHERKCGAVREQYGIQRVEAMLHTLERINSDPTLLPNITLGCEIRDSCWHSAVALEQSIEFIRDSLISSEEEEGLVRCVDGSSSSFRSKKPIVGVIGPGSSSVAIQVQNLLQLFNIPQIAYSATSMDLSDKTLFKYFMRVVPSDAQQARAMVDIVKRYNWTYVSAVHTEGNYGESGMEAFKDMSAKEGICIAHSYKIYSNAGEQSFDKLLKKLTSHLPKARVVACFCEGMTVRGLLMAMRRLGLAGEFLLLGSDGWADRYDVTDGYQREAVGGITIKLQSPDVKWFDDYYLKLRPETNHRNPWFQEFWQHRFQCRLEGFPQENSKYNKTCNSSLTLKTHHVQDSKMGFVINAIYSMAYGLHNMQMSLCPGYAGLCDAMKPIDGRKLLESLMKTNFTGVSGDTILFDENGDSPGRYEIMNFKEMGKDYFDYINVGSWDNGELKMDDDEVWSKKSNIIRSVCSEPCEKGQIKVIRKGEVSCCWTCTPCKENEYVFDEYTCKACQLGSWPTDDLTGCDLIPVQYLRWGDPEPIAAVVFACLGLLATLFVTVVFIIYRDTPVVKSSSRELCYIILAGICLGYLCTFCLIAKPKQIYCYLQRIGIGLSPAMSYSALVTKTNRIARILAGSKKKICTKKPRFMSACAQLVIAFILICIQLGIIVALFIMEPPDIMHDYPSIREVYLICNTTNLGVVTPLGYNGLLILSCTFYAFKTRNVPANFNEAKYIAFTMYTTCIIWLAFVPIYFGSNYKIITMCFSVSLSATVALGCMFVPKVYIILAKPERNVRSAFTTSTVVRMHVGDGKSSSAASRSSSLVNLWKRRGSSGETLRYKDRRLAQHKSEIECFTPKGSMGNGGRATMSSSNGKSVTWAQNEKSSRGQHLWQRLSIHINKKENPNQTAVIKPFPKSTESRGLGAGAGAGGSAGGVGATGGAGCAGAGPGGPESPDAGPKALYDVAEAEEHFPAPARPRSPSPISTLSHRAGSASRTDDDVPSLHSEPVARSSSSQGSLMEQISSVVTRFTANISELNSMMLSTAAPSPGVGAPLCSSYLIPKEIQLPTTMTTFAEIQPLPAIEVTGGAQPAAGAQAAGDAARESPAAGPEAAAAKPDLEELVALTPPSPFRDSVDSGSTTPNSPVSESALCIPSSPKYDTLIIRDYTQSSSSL
Assay [4] has as its target Metabotropic glutamate receptor 4 (Rattus norvegicus, UniProt P31423). The experiment in a line: Compound was tested in vitro for binding affinity against mGluR4a metabotropic glutamate receptor, using [3H]L-AP4 as the radioligand.
Assay [5] concerns the target Metabotropic glutamate receptor 1 (Rattus norvegicus, UniProt P23385). The experiment in a line: Compound was tested in vitro for binding affinity against mGluR1a metabotropic glutamate receptor, using [3H]glutamate as the radioligand.
For assay [6], the target named is Glutamate receptor ionotropic, AMPA (Rattus norvegicus, UniProt P19490+P19491+P19492+P19493). The experiment in a line: Compound was tested in vitro for binding affinity against Ionotropic glutamate receptor AMPA, using [3H]AMPA as the radioligand in rat cerebral cortical membranes. Type of assay: cell membranes.
The target in assay [7] is T2, Metabotropic glutamate receptor 2. The experiment in a line: Compound was tested for its antagonist activity against mGluR 2 receptor in CHO cells. Format: functional, cell-based, Cricetulus griseus.
Target sequence in this assay (Q14416 whole entry): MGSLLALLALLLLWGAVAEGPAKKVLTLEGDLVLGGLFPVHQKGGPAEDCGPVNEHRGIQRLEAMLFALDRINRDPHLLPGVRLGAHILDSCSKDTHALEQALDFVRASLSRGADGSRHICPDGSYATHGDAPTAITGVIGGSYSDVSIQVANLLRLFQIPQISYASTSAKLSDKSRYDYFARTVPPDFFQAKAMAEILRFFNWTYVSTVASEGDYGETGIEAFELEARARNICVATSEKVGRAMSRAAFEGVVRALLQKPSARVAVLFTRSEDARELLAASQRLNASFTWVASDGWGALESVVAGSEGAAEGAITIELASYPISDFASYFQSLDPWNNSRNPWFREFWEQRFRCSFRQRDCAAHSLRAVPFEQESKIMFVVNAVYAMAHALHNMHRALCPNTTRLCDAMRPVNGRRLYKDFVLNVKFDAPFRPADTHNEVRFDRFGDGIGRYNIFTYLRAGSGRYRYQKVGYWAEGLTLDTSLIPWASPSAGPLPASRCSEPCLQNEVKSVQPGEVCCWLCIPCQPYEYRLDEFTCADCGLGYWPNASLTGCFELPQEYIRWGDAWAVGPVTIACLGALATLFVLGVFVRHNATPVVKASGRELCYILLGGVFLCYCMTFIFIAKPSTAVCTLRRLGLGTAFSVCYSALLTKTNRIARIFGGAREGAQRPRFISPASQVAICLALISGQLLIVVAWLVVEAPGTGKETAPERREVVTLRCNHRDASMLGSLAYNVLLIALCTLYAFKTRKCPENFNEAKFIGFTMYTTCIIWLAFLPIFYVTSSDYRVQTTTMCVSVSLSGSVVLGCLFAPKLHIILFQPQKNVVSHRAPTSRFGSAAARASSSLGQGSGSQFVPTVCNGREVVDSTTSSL
The species entered for assay [8] is Rattus norvegicus. As to the kind of experiment: Compound was tested in vitro for binding affinity against calcium chloride dependent glutamate uptake site, using [3H]L-AP4 as the radioligand in rat cortical membranes. Type of assay: functional.
For assay [9], the target named is Metabotropic glutamate receptor 1 (Homo sapiens, UniProt Q13255). The experiment in a line: Compound was tested for its agonist activity against mGluR1a receptor in CHO cells. Format: functional, cell-based, Cricetulus griseus.
The target of assay [10] is Glutamate NMDA receptor. As to the kind of experiment: Compound was tested in vitro for binding affinity against NMDA receptor, using [3H]CPP as the radioligand in rat cerebral cortical membranes. Type of assay: cell membranes.
Assay [11] is filed under the species Rattus norvegicus. The experiment in a line: Compound was tested in vitro for binding affinity against sodium dependent [3H]glu-uptake into rat cortical synaptosomes, using [3H]-glutamate as the radioligand. Format: functional. Particulars: Brain.
The target in assay [12] is T2, Metabotropic glutamate receptor 2. The experiment in a line: Compound was tested for its agonist activity against mGluR 2 receptor in CHO cells. Type of assay: functional, cell-based, Cricetulus griseus.
Target sequence in this assay (Q14416 whole entry): as above
For assay [13], the target named is T3, Metabotropic glutamate receptor 6 (Homo sapiens, UniProt O15303). As to the kind of experiment: Compound was tested for its agonist activity against mGluR 6 receptor in CHO cells. Format: functional, cell-based, Cricetulus griseus.
In assay [14] the target is Glutamate receptor ionotropic, kainate 3 (Rattus norvegicus, UniProt P42264). As to the kind of experiment: Compound was tested in vitro for binding affinity against Ionotropic glutamate receptor kainate using [3H]kainate as the radioligand.
For assay [15], the target named is Glutamate receptor 1 (Rattus norvegicus, UniProt P19490). As to the kind of experiment: Compound was tested in vitro for binding affinity against Ionotropic glutamate receptor AMPA, using [3H]TCP as the radioligand.
Assay [16] deals with T3, Metabotropic glutamate receptor 6. As to the kind of experiment: Compound was tested for its antagonist activity against mGluR 6 receptor in CHO cells. Format: functional, cell-based, Cricetulus griseus.
Assay [17] has the same target. As to the kind of experiment: Compound was tested for its agonist activity against mGluR 6 receptor in CHO cells. Particulars: Cricetulus griseus. Format: functional, cell-based.

T3 sequence (O15303 whole entry): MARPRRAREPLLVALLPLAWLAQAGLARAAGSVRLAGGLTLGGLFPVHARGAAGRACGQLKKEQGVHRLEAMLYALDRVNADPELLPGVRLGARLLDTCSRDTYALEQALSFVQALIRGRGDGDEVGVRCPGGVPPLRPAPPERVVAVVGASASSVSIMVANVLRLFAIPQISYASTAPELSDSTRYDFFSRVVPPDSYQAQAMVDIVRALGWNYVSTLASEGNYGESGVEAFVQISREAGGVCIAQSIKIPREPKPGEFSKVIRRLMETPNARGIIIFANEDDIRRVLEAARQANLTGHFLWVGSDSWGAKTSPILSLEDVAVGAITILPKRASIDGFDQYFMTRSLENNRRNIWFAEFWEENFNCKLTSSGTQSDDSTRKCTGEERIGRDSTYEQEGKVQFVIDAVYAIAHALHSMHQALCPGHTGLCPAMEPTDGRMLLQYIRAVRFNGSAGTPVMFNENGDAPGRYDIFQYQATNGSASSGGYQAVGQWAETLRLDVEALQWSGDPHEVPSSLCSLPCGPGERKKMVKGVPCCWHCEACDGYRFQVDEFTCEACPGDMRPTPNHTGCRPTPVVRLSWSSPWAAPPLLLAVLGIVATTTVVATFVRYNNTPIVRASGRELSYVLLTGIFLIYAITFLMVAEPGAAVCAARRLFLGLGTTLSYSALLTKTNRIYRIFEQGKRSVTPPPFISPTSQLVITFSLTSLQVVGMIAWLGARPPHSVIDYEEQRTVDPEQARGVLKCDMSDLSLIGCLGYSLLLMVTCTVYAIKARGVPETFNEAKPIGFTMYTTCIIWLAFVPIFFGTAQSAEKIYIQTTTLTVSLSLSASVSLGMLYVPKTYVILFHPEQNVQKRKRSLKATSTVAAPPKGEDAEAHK
Glutamate receptor 1, sequence (P19490 whole entry): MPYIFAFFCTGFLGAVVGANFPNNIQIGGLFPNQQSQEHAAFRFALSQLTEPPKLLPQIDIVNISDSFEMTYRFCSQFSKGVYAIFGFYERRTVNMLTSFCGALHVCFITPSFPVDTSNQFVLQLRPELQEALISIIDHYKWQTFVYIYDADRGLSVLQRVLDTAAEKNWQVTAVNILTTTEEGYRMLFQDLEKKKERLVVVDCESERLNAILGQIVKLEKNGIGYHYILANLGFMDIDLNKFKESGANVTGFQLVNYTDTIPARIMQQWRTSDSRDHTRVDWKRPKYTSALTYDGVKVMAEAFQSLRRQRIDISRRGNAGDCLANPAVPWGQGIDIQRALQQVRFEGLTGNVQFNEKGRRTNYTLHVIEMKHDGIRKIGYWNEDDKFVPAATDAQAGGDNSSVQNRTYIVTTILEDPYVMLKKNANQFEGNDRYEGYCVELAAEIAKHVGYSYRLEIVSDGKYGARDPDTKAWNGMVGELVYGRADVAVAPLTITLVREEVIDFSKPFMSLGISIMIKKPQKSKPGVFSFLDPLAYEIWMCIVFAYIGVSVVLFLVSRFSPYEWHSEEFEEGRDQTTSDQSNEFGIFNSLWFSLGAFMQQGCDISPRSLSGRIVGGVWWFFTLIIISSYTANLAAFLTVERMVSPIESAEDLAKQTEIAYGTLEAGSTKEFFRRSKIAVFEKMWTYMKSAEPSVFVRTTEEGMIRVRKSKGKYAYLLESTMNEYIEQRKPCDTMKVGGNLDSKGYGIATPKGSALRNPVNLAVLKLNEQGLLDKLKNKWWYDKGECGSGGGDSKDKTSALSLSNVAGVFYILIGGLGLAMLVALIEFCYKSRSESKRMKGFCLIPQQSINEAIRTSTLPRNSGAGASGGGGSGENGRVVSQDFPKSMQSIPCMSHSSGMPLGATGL

Turning to `O=C(O)C[C@H]1CN[C@@H]1C(=O)O`, the Max response in [1] came to 95%; in assay [2], 0%; in [17], 17%. The values for the inhibition in assay [2] (concentration not given here) and in assay [17] (concentration not given here) were 40% and 0%, respectively. Also, the concentration for a half-maximal effect (EC50) – broadly, the concentration at which the effect is half-maximal – is 105 µM in [3], 210 µM in assay [9] and over 600 µM in assay [12]. Further, the IC50 (in general, the concentration that inhibits the measured activity by half) in assay [4] was 315 µM; in [5] it was 12 µM; in assay [6], 13 µM; in assay [7] it was over 600 µM; in assay [8], 33 µM; in assay [10], 49 µM. Moreover, the IC50 was 5 µM in assay [11]; over 300 µM in assay [13]; 0.7 µM in [14]; over 660 µM in assay [15]; over 300 µM in assay [16].
